Experimental data from the NIST ThermoML archive (doi:10.1016/j.tca.2010.07.023).
± gives the expanded uncertainty stated by the source.

How the values were obtained:
[1] = DTA
[2] = Molar enthalpy of transition or fusion; details: DSC

Triple point temperature ([1]; Crystal 1) [K]	Triple point temperature ([1]; Crystal 2) [K]	Triple point temperature ([1]; Crystal 3) [K]	Molar enthalpy of transition or fusion ([2]; Crystal 1) [kcal/mol]	Molar enthalpy of transition or fusion ([2]; Crystal 2) [kcal/mol]	Molar enthalpy of transition or fusion ([2]; Crystal 3) [kcal/mol]	SMILES
448 ± 1.5	364 ± 5	206.1 ± 1.4	1.41 ± 0.0717	0.0406 ± 0.0239	0.311 ± 0.0717	CC12CCC(CC1=O)C2(C)C (configuration not stated) [1,7,7-trimethylbicyclo[2.2.1]-2-heptanone]
451.8 ± 1.4	370 ± 4	242.7 ± 1.4	1.51 ± 0.12	0.0382 ± 0.0239	2.68 ± 0.12	CC1(C)[C@@H]2CC[C@@]1(C)C(=O)C2 [d-camphor]
